Experimental data as given in US4032534A, “Certain 2-(2-thioethyl)thiazolidine-4-carboxylic acids” (Ferlus-Chimie S.A., priority 1973, dated 1977).

Key:
in vivo = details: mouse, po
[1] = test system: phenylbenzoquinone-induced stretching or twisting movements (writhing syndrome); assay: Siegmund test (analgesic action; phenylbenzoquinone writhing syndrome); assay type: in vivo; details: mouse, 300 mg/kg PO, 30 minutes before phenylbenzoquinone, protected = less than five stretching movements in 5 minutes
Experimental: Reference: […], E. A.: CADMUS, R. A.: GOLU: "A Method for evaluating both non-narcotic and narcotic Analgesics." Pro. Soc. Exp. Biol., 1957, b, 95, 729-731.
Principle: Injection of an irritant, phenylbenzoquinone (in 0.02% solution), into the peritoneum of a mouse, determination of the stretching or twisting movements (writhing syndrome), whose frequency is diminished by the preventive administration of analgesic.
The substances were given orally 30 minutes before injection of the irritant. The number of stretching movements between the 5th and 10th minute after injection of phenylbenzoquinone were counted. The percentage of animals protected was calculated. A mouse was considered protected if it executed less than five stretching movements in 5 minutes.

[2] = test system: femoral arterial pressure and cardiac contractile force; assay: Cardiovascular action in a dog anaesthetised with chloralose; assay type: in vivo
Experimental: This action was studied in a dog, anaesthetised with chloralose, its reflexogenic, cardioaortic and sinocarotidian zones being intact (normotense dog), or denervated (hypertense dog). The product to be tested was injected in the saphena vein, and the femoral arterial pressure and cardiac contractile force were recorded.

mouse = details: for DL 50: per os, species not given
[3] = Mucolytic action: measurement of the fluidising action of the bronchial secretion (microviscosimeter of the BROOKFIELD type); details: for Percentage diminution of viscosity: 37° C.
Experimental: Mucolytic action: measurement of the fluidising action of the bronchial secretion.
The study of the viscosity of an expectoration is effected in vitro. In order to measure viscosity, a microviscosimeter of the BROOKFIELD type is used. With the aid of this apparatus, the resistant couple exerted on a rotor is determined. This rotor, submerged in the liquid whose viscosity is to be measured, rotates at a known constant speed.
1.5 ml of secretion, taken to ambient temperature, was poured into a container of the viscosimeter. After 4 minutes, the temperature of the expectoration was balanced at 37° C., then the motor of the apparatus was started for 5 minutes, after which measurement was effected.
Three rotor speeds were used:
1.5 r.p.m.; 3 r.p.m., and 6 r.p.m.
The three speeds were used for each test. Firstly, the viscosity of the pure expectoration was measured, then that of the expectoration to which had been added one drop of distilled water as a solvent, and whose retained values were later used as witness values, or placebo values.
Thereafter, 1.5 ml of secretion had added to it a drop of the product at the first aqueous concentration envisaged.
The viscosity was measured at the three rotary speeds of the rotor. The same operation was repeated at the following concentrations; 1 mg/ml; 2 mg/ml and 5 mg/ml.
The reference substance was mercapto-ethane sulfonate of sodium or MISTABRON (M.E.S. Na). This substance had been studied under the same experimental conditions at a concentration of 200 mg/ml.

SMILES: O=C(O)CSCCC1NC(C(=O)O)CS1 (stereo not shown) [Compound No. 4, 4-carboxy-thiazolidinyl-2-ethyl mercapto acetic acid]
- LD50 (in vivo): > 1200 mg/kg
- % of animals protected ([1]; 300 mg/kg): 40%

SMILES: O=C(O)C1CSC(CCSCc2nc3ccccc3[nH]2)N1 (stereo not shown) [Compound No. 10, 2-[2-(benzimidazolylmethyl)-2-thioethyl]-thiazolidine 4-carboxylic acid]
- cardiostimulant properties (in words) ([2]; saphena vein injection, 20 mg/kg): clear cardiostimulant properties
- DL 50 (mouse): > 1200 mg/kg

SMILES: O=C(O)CSCCC1NC(C(=O)O)CS1 (stereo not shown) [Compound No. 5, 4-carboxy thiazolidinyl 2-ethyl mercapto acetate of di(diisopropylamine)]
- antihypertensive and hypotensive action (in words) ([2]; intravenous, 10 mg/kg): antihypertensive and hypotensive
- Acute Toxicity mouse PO (mouse): > 1200 mg/kg
- DL 50 (mouse): > 1200 mg/kg
- % of animals protected ([1]; 300 mg/kg): 20%

SMILES: O=S(=O)(O)CCS [M.E.S. Na, mercapto-ethane sulfonate of sodium, reference compound]
- Percentage diminution of viscosity ([3]; 200 mg/ml, rotor speed V = 1.5 r.p.m.): 66%
- Percentage diminution of viscosity ([3]; 200 mg/ml, rotor speed V = 3 r.p.m.): 65%
- Percentage diminution of viscosity ([3]; 200 mg/ml, rotor speed V = 6 r.p.m.): 55%

SMILES: CCOC(=O)CSCCC1NC(C(=O)O)CS1 (stereo not shown) [Compound No. 8, 2-[(Ethoxycarbonylmethylthio)-ethyl] thiazolidine 4-carboxylate of diisopropylamine]
- Percentage diminution of viscosity ([3]; 1 mg/ml, rotor speed V = 1.5 r.p.m.): 58%
- Percentage diminution of viscosity ([3]; 1 mg/ml, rotor speed V = 3 r.p.m.): 55%
- Percentage diminution of viscosity ([3]; 1 mg/ml, rotor speed V = 6 r.p.m.): 46%
- Percentage diminution of viscosity ([3]; 2 mg/ml, rotor speed V = 1.5 r.p.m.): 60%
- Percentage diminution of viscosity ([3]; 2 mg/ml, rotor speed V = 3 r.p.m.): 57%
- Percentage diminution of viscosity ([3]; 2 mg/ml, rotor speed V = 6 r.p.m.): 47.5%
- Percentage diminution of viscosity ([3]; 5 mg/ml, rotor speed V = 1.5 r.p.m.): 71%
- Percentage diminution of viscosity ([3]; 5 mg/ml, rotor speed V = 3 r.p.m.): 62%
- Percentage diminution of viscosity ([3]; 5 mg/ml, rotor speed V = 6 r.p.m.): 58%
- mucolytic action versus reference M.E.S. Na (in words) ([3]; in accordance with the doses used (1, 2, 5 mg/ml vs 200 mg/ml M.E.S. Na)): comparable with and even superior to the reference substance

SMILES: O=C(O)CSCCC1NC(C(=O)O)CS1 (stereo not shown) [compound 6, 4-carboxy thiazolidinyl 2-ethyl mercapto arginine acetate]
- Acute Toxicity mouse PO (mouse): > 1200 mg/kg
- % of animals protected ([1]; acetate, 300 mg/kg): 20%

SMILES: O=C(O)C1CSC(CCSc2nc3ncccc3o2)N1 (stereo not shown) [compound 11, 2-(2-pyridoxazolyl-2-thioethyl)thiazolidine 4-carboxylic acid]
- LD50 (in vivo): > 1200 mg/kg
- % of animals protected [1]: 20%
